Test results from patent US20040142929A1, “Derivatives of aryl (or heteroaryl) azolylcarbinoles for the treatment of urinary incontinence” (priority 2001, published 2004).

Tests used:
[1] = system: Urinary incontinence secondary to overactive bladder (detrusor hyperreflexia or instability) or idiopathic urge incontinence; assay: Clinical Study A: placebo controlled clinical trial, 84 days; format: in vivo, human
Protocol: (§1) In a placebo controlled clinical trial 79 patients were randomised. Patients from both genders aged between 18 and 80 years (both inclusive) were included. They had Urinary incontinence secondary to overactive bladder (detrusor hyperreflexia or instability) or idiopathic urge incontinence confirmed by the medical history and urodynamic study.
The patients were treated within one group with (±)-5-{α-[2-(dimethylamino)ethoxy]benzyl}-1-methyl-1H-pirazole citrate, 400 mg, twice a day, tablets for oral administration, or within another group with placebo in matching tablets, twice a day, for administration by oral route. The patients were treated for 84 days.
Efficacy was measured by the difference from baseline in the mean number of leakages, micturitions, urgencies and voidings/24 hours as provided by a 7-day frequency-volume chart in the end of study visit
The primary efficacy analysis was based on the PP population. The treatment groups were compared with respect to the treatment effect, defined as the difference between treatment groups for changes from baseline in the number of voidings per 24 hours.
(§2) As an addition the percentage of responders was compared based on an analysis of the number of patients having <8 voidings/day or experienced complete dryness or both. The statistical significance was determined.

[2] = system: Urinary incontinence secondary to overactive bladder (detrusor hyperreflexia or instability) or idiopathic urge incontinence; assay: Clinical Study B: placebo controlled clinical trial, 84 days; format: in vivo, human
Protocol: as §1, with “135” for “79”
The patients were treated within one group with […]{α-[2-(dimethylamino)ethoxy]benzyl}-1-methyl-1H-pirazole citrate, 230 mg b.i.d, capsules (meaning 400 mg (±)-5-{α-[2-(dimethylamino)ethoxy]benzyl}-1-methyl-1H-pirazole citrate/capsule) for oral administration (twice daily) or within another group with placebo, matching capsules, […], for administration by oral route. The patients were treated for 84 days.
Efficacy was measured by the difference from baseline in the mean number of voidings/24 hours as provided by a 7-day frequency-volume chart in the end of study visit.
The primary efficacy analysis was based on the PP population. […]
as §2

[3] = patients, 400 mg citrate twice a day, oral tablets, 84 days, difference from baseline, 7-day frequency-volume chart

SMILES	improving urge incontinence caused by overactive bladder: efficacy variables compared to placebo ([1]; citrate 400 mg twice a day (equivalent to 230 mg base twice a day), oral route)	mean number of daily leakages compared with placebo [1, 3]	mean number of daily micturitions compared with placebo [1, 3]	mean number of daily urgencies compared with placebo [1, 3]	mean number of daily voidings compared with placebo [1, 3]	percentage of responders (patients having <8 voidings/day or complete dryness or both) versus placebo ([1]; patients, 400 mg citrate twice a day, oral, 84 days, FIG. 1)	percentage of responders (patients having <8 voidings/day or complete dryness or both) versus placebo ([2]; 230 mg b.i.d., oral, FIG. 2)	reduction of the mean number of voidings per 24 hours (change from baseline) ([2]; patients, 230 mg b.i.d. (400 mg citrate/capsule), oral capsules, PP population) [units]
CN(C)CCOC(c1ccccc1)c1ccnn1C.O=C(O)CC(O)(CC(=O)O)C(=O)O (racemic) [(±)-5-{α-[2-(dimethylamino)ethoxy]benzyl}-1-methyl-1H-pirazole citrate]	statistical and clinically significant improvements compared to placebo in the majority of efficacy variables considered	significant reduction	significant reduction	significant reduction	significant reduction			
CN(C)CCOC(c1ccccc1)c1ccnn1C.O=C(O)CC(O)(CC(=O)O)C(=O)O (racemic) [(±)-5-{α-[2-(dimethylamino)ethoxy]benzyl}-1-methyl-1H-pirazole]						superior to placebo	superior to placebo	5.83
